Source: patent US20070037835A1, “Pharmaceutical composition comprising a cathepsin s inhibitor and an opioid” (priority 2003, published 2007)
Structures can show the parent of a compound that is named as a salt.

Experiments:
[1] = system: established mechanical hyperalgesia; assay: Chronic neuropathic pain model (Seltzer, partial ligation of the sciatic nerve), paw withdrawal threshold; format: in vivo, Wistar rats; conditions: mean ± s.e.m.
From the text: Hyperalgesia is examined in the model of neuropathic pain induced by partial ligation of the sciatic nerve as described by Seltzer et al. (1990). Briefly, Wistar rats (120-140 g) are anaesthetised, the left sciatic nerve exposed at mid-thigh level through a small incision and ⅓ to ½ of the nerve thickness tightly ligated within a 7.0 silk suture. The wound is closed with a single muscle suture and skin clips and dusted with Aureomycin antibiotic powder. The animals are allowed to recover and used 12-15 days following surgery. Mechanical hyperalgesia is assessed by measuring paw withdrawal thresholds to an increasing pressure stimulus placed onto the dorsal surface of the paw using an analgesy-meter (Ugo-Basile, Milan) with a cut-off of 250 g. Withdrawal thresholds are measured on both the ipsilateral (ligated) and contralateral (unligated) paw prior to (predose) and then up to 6 h following drug or vehicle administration. Data are expressed as withdrawal threshold (g) and percentage reversal of hyperalgesia calculated according to the following formula: [formula]
Potency is expressed as D50 value, i.e. the dose of the single compound or a COMBINATION OF THE INVENTION necessary to produce 50% reversal of hyperalgesia.
Paw withdrawal thresholds are measured prior to drug treatment (predose) and then at 0.5, 1, 3 and 6 hours following concomitant administration of morphine subcutaneously and the cathepsin inhibitor of formula II orally. Each time point represents data from 6 animals per group. Vehicle is 0.5% methylcellulose, 1 ml p.o./0.9% saline s.c. Statistical analysis is performed on raw data (paw withdrawal thresholds).
Statistical significance, *† P<0.05 by Analysis of variance followed by Dunnett's test.

[2] = system: neuropathic rat nociceptive threshold; assay: Naloxone blockade of anti-hyperalgesic effect in neuropathic rats; format: in vivo

CC(C)(C)CCn1c(Cc2ccc(Cl)cc2)cc2cnc(C#N)nc21 [Inhibitor]
% Reversal of Predose Hyperalgesia ([1]; Inhibitor 10 mg/kg p.o., 0.5 h post-dose): 30.3 ± 5.8%
% Reversal of Predose Hyperalgesia ([1]; Inhibitor 10 mg/kg p.o., 1 h post-dose): 22.8 ± 4.6%
% Reversal of Predose Hyperalgesia ([1]; Inhibitor 30 mg/kg, 0.5 h post-dose): 46.7 ± 11.4%
% Reversal of Predose Hyperalgesia ([1]; Inhibitor 30 mg/kg, 1 h post-dose): 54.7 ± 7.1%

CN1CC[C@]23c4c5ccc(O)c4O[C@H]2[C@@H](O)C=C[C@H]3[C@H]1C5 [Morphine, morphine]
% Reversal of Predose Hyperalgesia ([1]; Morphine 1 mg/kg s.c., 0.5 h post-dose): 4.4 ± 2.8%
% Reversal of Predose Hyperalgesia ([1]; Morphine 1 mg/kg s.c., 1 h post-dose): 6.5 ± 2.9%

C=CCN1CC[C@]23c4c5ccc(O)c4O[C@H]2C(=O)CC[C@@]3(O)[C@H]1C5 [Naloxone hydrochloride]
effect on neuropathic rat nociceptive threshold ([2]; naloxone alone, 0.1 mg/kg): devoid of any effect
effect on the anti-hyperalgesic effect induced by the compound of formula II ([2]; neuropathic rats, naloxone 0.1 mg/kg): blocks the anti-hyperalgesic effect
